Test results reported in PMC9995496, “A screen for MeCP2-TBL1 interaction inhibitors using a luminescence-based assay” (Scientific Reports, 2023).
Ends that are not written are not given here. * marks the point of attachment. Biotin = O=C1N[C@H]2[C@H](CS[C@H]2CCCCC(=O)*)N1

The molecules below were run against T1, MeCP2-TBL1 interaction (MeCP2-SmBiT / TBL1-LgBiT) (Mus musculus, UniProt Q9QXE7) (assay: MeCP2-TBL1 NanoLuc luciferase complementation assay (cell-free, extracts of transfected HEK293 cells)). Conditions: peptide at 20 µM, n = 2.
T1 construct: expressed in transfected cells; crude lysate used as a cell-free assay
T1 sequence (Q9QXE7 166-527): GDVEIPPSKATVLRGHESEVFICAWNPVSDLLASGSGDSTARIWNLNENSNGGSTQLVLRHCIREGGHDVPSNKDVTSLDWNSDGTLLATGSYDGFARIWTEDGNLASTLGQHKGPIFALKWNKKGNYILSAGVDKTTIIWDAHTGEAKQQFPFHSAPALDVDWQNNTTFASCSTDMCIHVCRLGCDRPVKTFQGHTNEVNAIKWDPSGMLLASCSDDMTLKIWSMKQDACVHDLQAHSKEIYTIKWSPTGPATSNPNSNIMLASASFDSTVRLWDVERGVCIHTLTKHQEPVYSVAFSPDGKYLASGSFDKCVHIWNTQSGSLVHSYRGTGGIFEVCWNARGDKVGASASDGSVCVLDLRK
Type: binding, human
Description: To facilitate the discovery of inhibitors of the interaction between MeCP2 and TBL1/TBLR1, we set out to devise a simple and scalable biochemical assay for measuring the interaction between these two proteins. We initially explored the possibility of screening compound libraries using a previously established fluorescence polarization assay that depends on purified recombinant TBL1/TBLR1[26]. […] The resulting luminescence signal depends on the affinity between the two interacting proteins of interest (Fig. 1A). This method was originally developed to allow for the interrogation of protein–protein interactions in vivo. However, in order to facilitate large scale screening of chemical libraries, we adapted the assay for use as a cell-free system.
We fused the large N-terminal fragment of NanoLuc (LgBiT) to the C-terminus of the WD repeat domains of both TBL1 and TBLR1, and the small C-terminal fragment of NanoLuc (SmBiT) to the C-terminus of the C-terminal half of MeCP2 (Fig. 1B and C). This region of MeCP2 contains the NID (NCoR interaction domain)—the motif in MeCP2 that binds to TBL1/TBLR1.
The AgeI-NotI restriction fragment (encoding EGFP) was then replaced with a codon optimized SmBiT sequence to yield the MeCP2-SmBiT expression plasmid. The TBL1-LgBiT expression vector was derived from a TBL1-mCherry plasmid[25] by replacing the AgeI-NotI restriction fragment (encoding mCherry) with a codon optimized LgBiT sequence. SmBiT-PRKACA and LgBiT-PRKAR2A plasmids are commercially available (Promega, N203 and N204).
Cells were harvested after 24 h and cell pellets were stored at − 80 °C.
In the screens described here, the lysate obtained from a single 15 cm plate was used for 2.5 384-well assay plates. NanoLuc substrate (furimazine) (Promega, N1110) was diluted 1000-fold in passive lysis buffer (Promega, E1941) and added 1:1 to the lysate. Screening libraries were purchased from Asinex[40] and ApexBio (FDA-approved Drug Library, L1021). Compounds were dispensed using an Echo acoustic dispenser and tested at a final concentration of 20 µM in a total assay volume of 20 μl in 384-well plate format. DMSO was added to each well at a final concentration of 0.2% (v/v) and wells containing only DMSO were used as negative control. After 30 min incubation at room temperature, luminescence was measured on a Tecan M1000 multi-mode plate reader. Raw luminescence reads from each well on each plate were normalized to the median luminescence signal for that plate. In the ApexBio screen, the scaled and normalized PKA signal for each compound was subtracted from the MeCP2-TBL1 signal for the same compound. After plate normalization the robust SSMD (SSMD*) was calculated as described elsewhere. A threshold of SSMD* ≥ 3 was applied for discerning primary hits.
Assays were performed as described above except instead of a single concentration, a threefold serial dilution ranging from 60 to 0.03 μM was tested in triplicate for each of the compounds. Half-maximal inhibitory concentrations were calculated using global nonlinear regression by fitting the response data sets of all compounds simultaneously with a four-parameter logistic curve of log inhibitor concentration versus normalized luminescence using GraphPad Prism. During fitting, the maximum and minimum curve values were shared between the data sets.

effect of competitor peptide on MeCP2-TBL1 luminescence signal | Molecule
strongly inhibited | 35 amino acid peptide: 35 amino acid MeCP2 wild-type NID peptide (residues 285-319), N-terminal biotin (Biotin-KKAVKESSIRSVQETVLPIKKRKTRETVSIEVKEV; UniProt P51608 285-319, looked up, fragment) [reference compound]

Same assay, conditions: primary screen of Asinex library, single well per compound

Inhibition percent | Molecule
-0.64 | Cc1ncc(C(=O)N2CCOCC2)c(C2CCCCN2C(=O)c2nccc3ccccc23)n1 (stereo not shown) [BDC_23573125]
-4.87 | COc1cccc(Cc2cccc(C3CCCN(Cc4ccncc4)C3)n2)c1 (stereo not shown) [BDC_27849507]
-0.68 | COCCN1C(=O)C[C@@H](C(=O)NCc2ccccc2COC)[C@@H]1c1ccccc1 [BDC_32231307]
-2.65 | CCN1CCN(C(=O)CCC2NC(=O)NC2=O)C(Cc2ccc(-c3ccccc3)cc2)C1=O (stereo not shown) [BDD_21846702]
-0.05 | CN1CCC(c2c(C(=O)NCCS(=O)(=O)NC3CCCCC3)sc3ccccc23)C1 (stereo not shown) [BDD_24044260]

Same assay, conditions: primary screen of the Asinex library, sheet "Sargen output Asinex library", one well per compound

Molecule | Inhibition percent
COc1ccc(C2CCCN2C(=O)Cn2cc(NC(=O)Cc3ccccc3F)cn2)cc1 (stereo not shown) [BDC_25693383] | -0.19%
COc1ccc(Cc2cccc(C3CCN(C(=O)Cc4ccc(F)cc4)CC3)n2)cc1 [BDC_27855593] | 0.65%
C=CCN1CCN(C(=O)Cc2cccnc2)C(Cc2ccc(-c3cccs3)cc2)C1=O (stereo not shown) [BDD_21855492] | 0.61%
Cc1cnc(C(=O)N2CCC(Cc3nc(C)ncc3C(=O)NCc3ccccc3)CC2)cn1 [BDD_23852576] | 0.67%
COc1ccc(F)cc1-c1cccc(CC2(C(=O)NCCN3CCCCC3C)CCOCC2)c1 (stereo not shown) [BDD_24116196] | 5.71%
Cc1cc(C)cc(-c2cccc(CC3(C(=O)NCCCN4CCC(C)CC4)CCOCC3)c2)c1 [BDD_24116218] | -2.01%
CCCC(=O)N1Cc2ccccc2OC2(CCC(N(C)CC3CCCCC3)CC2)C1 (stereo not shown) [BDD_24804536] | -1.18%
Cn1c(=O)c2ccc(C3CCCCN3C(=O)c3cc[nH]n3)nc2n(Cc2ccccc2)c1=O (stereo not shown) [BDD_26868519] | 4.40%

Other lines, results leading:

Inhibition percent | Molecule
2.11% | O=C(Cn1cccc(C(=O)NCc2ccccc2)c1=O)NC1(c2ccccc2)CCCC1 [BDB_26402348]
-0.72% | CN(Cc1ccc2ncccc2c1)C(=O)Cn1cc(C(=O)NCc2ccccc2)ccc1=O [BDB_26410269]
-0.69% | Cc1ccc(CC(=O)N2CCCC(c3ncc(C(=O)NCc4ccccc4)c(C)n3)C2)cc1 (stereo not shown) [BDC_23198767]
0.37% | COc1ccc(CNC(=O)c2cnc(C)nc2C2CCCCN2C(=O)c2cnccn2)cc1 (stereo not shown) [BDC_23571437]
-1.44% | CNC(=O)c1cnc(C)nc1C1CCCCN1CCS(=O)(=O)c1ccccc1 (stereo not shown) [BDC_23573041]
7.34% | CNc1ncccc1CN1CCCC(c2cccc(Cc3cccc(F)c3)n2)C1 (stereo not shown) [BDC_27866586]
-0.99% | CN(Cc1cccc(F)c1)Cc1nc(C2CC(=O)N(Cc3ccccc3)C2)cc(N(C)C)n1 (stereo not shown) [BDD_23510085]
-1.53% | CC(=O)Nc1cccc([C@@H]2CN(Cc3ccc4c(c3)n(C)c(=O)n4C)C[C@]23CCCCC(=O)N3)c1 [BDD_25153608]
3.48% | Cc1cc(-c2cnc(C(C)(C)C)nc2C2CCN(Cc3ccc(N4CCCC4)cc3)CC2)on1 [BDD_25871827]
-1.33% | Cn1cc(CCC(=O)N2CCCC2c2ccc(CNC3Cc4ccccc4C3)cn2)c2ccccc21 (stereo not shown) [BDD_27352850]
-3.22% | CCOc1ccccc1NC(=O)N(C(C)c1ccccc1)C1CCn2c1nc1ccccc1c2=O (stereo not shown) [BDD_27845157]
-2.15% | COc1cccc(Cc2cccc(C3CCCN3C(=O)Cc3ccncc3)n2)c1 (stereo not shown) [BDD_27854270]

Same assay, conditions: primary screen of the Asinex library, sheet "Sargen output Asinex library", one well per compound, Batch Ref. 1

Molecule | Inhibition percent
O=C(Cn1cc(C(=O)NC2CCCCC2)ccc1=O)NCC1(c2ccccc2Cl)CC1 [BDB_26414870] | 4.99%
Cc1cccc(CC(=O)N2CCC(Cc3cccc(-c4cccnc4)c3)(C(N)=O)CC2)c1 [BDC_22461702] | -2.13%
Cc1cccc(CC(=O)N2CCCCC2c2ncc(C(=O)NCc3ccccc3)c(C)n2)c1 (stereo not shown) [BDC_23190776] | -1.94%
CCN1C(=O)CC[C@@H](C(=O)NCCOc2ccccc2)[C@@H]1c1ccccc1F [BDC_32230426] | 0.19%
COc1cccc(C(=O)N2CCNC(=O)C2Cc2cccc(-c3cccc(F)c3)c2)c1OC (stereo not shown) [BDD_21847933] | 1.68%
CCN1CCN(C(=O)Cc2ccccc2OC)C(Cc2cccc(-c3ccncc3)c2)C1=O (stereo not shown) [BDD_21872283] | -1.27%
O=C1CCC[C@]2(CN(Cc3cccc(-c4ccccc4F)c3)C[C@H]2c2ccccc2F)N1 [BDD_23570797] | 11.53%
O=C1CCC[C@]2(CN(Cc3cccc(-c4ccccc4F)c3)C[C@H]2c2ccc(F)c(F)c2)N1 [BDD_23570819] | 11.60%
COc1ccccc1-c1ccc(CN2C[C@@H](c3cccc(NC(C)=O)c3)[C@@]3(CCCCC(=O)N3)C2)cc1 [BDD_23570835] | 5.89%
Cc1ncc(C(=O)NCc2ccccc2)c(CC2CCN(C(=O)C3CCCCC3)CC2)n1 [BDD_23848427] | -4.61%
NC(=O)c1cc(C2CN(C(=O)c3ccnc(N4CCCCC4)c3)CCO2)nc2ccccc12 (stereo not shown) [BDD_24083754] | -2.41%
O=C(Cn1cccn1)N1CCOC(c2cc(C(=O)N3CCOCC3)c3ccccc3n2)C1 (stereo not shown) [BDD_24083810] | -2.04%
O=C(c1ccccn1)N1CCCC1c1cccc(Cc2ccc(C(F)(F)F)cc2)n1 (stereo not shown) [BDD_27852665] | -2.94%

The remaining lines, values ahead:

Inhibition percent | Molecule
-1.31% | C=CCC1(CC=C)CCN1C(=O)C1(Cc2ccc(-c3cccnc3)cc2)CCOCC1 [BDC_20667788]
-3.60% | CCOc1ccc(CN2CCCC2c2ncc(C(=O)NCc3ccc(F)cc3)c(C)n2)cc1 (stereo not shown) [BDC_23170699]
-4.37% | COc1ccccc1NC(=O)C1CN(C(=O)COc2ccccc2)Cc2cn(C)nc21 (stereo not shown) [BDC_23414979]
4.82% | O=C1CCCC[C@]2(CN(Cc3ccc(-c4ccccc4)cc3)C[C@H]2c2cc(F)cc(F)c2)N1 [BDD_20406167]
4.73% | O=C1CC(C(=O)N2CCNC(=O)C2Cc2cccc(-c3ccccc3)c2)c2ccccc2N1 (stereo not shown) [BDD_21879577]
-2.52% | CCN1CCN(C(=O)Cc2ccccc2OC)C(Cc2ccc(-c3cccnc3)cc2)C1=O (stereo not shown) [BDD_21886831]
1.23% | COc1ccccc1-c1cccc(CN2C[C@@H](c3cc(F)cc(F)c3)[C@@]3(CCCCC(=O)N3)C2)c1 [BDD_23570836]
-2.46% | COCCNC(=O)c1sc2ccccc2c1C1CN(C(=O)C(C)(C)OC)CCO1 (stereo not shown) [BDD_24015180]
3.48% | Cc1cccc(Nc2ccc(C3CCCN3C(=O)COc3ccc4c(c3)OCCO4)nc2)n1 (stereo not shown) [BDD_25671481]
-3.87% | COc1ccccc1CNC(=O)c1cn(C)nc1CC1CCN(C(=O)c2cccnc2)CC1 [BDD_26909786]
6.69% | Cc1nc2c(c(Nc3ccccn3)n1)CCN(S(=O)(=O)c1cccc(C(F)(F)F)c1)CC2 [BDD_27755359]
10.59% | CC(C)(C)OC(=O)Nc1cc(-c2c[nH]nc2C2CCCCN2C(=O)OC(C)(C)C)ccn1 (stereo not shown) [BDD_27845058]
9.99% | COc1ccccc1Cc1cccc(C2CCCN2C(=O)Cc2c[nH]c3ccccc23)n1 (stereo not shown) [BDD_27856210]
